The values below come from ChEMBL document CHEMBL1133132, “Cell adhesion antagonists: synthesis and evaluation of a novel series of phenylalanine based inhibitors” (Bioorg Med Chem Lett, 2000).

Structures are written as SMILES.

In the first assay the target is T1, Integrin alpha-4/beta-7 (Homo sapiens, UniProt P13612+P26010).
T1 sequence (P13612 whole entry): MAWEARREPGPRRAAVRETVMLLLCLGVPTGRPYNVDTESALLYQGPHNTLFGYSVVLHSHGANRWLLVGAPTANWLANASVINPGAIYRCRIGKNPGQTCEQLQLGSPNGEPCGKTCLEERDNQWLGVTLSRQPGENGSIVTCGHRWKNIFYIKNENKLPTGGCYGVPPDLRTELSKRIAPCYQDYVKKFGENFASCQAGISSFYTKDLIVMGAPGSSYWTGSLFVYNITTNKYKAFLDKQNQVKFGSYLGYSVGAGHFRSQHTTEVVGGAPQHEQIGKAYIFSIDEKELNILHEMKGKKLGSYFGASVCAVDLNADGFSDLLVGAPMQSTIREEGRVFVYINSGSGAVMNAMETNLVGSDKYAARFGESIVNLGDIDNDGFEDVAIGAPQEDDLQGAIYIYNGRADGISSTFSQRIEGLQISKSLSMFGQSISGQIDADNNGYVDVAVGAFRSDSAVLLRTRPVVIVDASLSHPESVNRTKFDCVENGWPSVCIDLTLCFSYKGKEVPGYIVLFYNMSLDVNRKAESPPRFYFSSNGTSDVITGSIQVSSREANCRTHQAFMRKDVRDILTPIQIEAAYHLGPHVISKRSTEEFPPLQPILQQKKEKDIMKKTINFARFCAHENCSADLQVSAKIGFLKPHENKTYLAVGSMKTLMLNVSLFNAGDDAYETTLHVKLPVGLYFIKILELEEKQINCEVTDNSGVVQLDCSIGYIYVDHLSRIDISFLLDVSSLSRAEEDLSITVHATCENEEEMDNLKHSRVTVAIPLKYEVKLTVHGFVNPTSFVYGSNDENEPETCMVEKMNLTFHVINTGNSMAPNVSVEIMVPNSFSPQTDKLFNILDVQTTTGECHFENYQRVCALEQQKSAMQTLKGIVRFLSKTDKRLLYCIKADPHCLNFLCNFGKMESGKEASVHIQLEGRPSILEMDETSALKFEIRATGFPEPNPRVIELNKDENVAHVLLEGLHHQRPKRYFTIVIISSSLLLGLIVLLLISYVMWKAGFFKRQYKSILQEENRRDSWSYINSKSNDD
T1 sequence (P26010 whole entry): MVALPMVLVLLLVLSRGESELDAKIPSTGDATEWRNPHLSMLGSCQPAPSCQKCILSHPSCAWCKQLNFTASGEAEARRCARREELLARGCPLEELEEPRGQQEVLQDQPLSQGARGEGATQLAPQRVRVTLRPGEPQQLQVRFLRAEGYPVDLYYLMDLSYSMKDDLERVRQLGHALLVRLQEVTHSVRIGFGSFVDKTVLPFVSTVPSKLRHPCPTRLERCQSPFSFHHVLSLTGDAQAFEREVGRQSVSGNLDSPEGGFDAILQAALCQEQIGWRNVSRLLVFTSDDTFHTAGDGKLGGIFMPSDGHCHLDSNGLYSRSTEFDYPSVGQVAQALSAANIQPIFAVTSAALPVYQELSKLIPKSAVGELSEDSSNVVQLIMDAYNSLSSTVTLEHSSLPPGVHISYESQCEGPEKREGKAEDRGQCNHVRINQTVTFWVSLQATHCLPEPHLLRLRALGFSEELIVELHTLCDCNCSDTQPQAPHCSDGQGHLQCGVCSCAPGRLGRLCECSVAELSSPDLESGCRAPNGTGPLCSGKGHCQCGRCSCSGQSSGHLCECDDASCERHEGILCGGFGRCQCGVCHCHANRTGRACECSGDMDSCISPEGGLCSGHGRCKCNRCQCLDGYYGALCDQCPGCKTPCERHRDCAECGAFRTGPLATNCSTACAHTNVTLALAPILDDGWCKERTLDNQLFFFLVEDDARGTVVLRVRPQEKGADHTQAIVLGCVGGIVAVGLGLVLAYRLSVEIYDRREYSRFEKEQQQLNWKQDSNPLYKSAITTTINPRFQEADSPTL
Briefly: Inhibition of alpha-4 beta7/MAdCAM mediated cell adhesion was evaluated using B-cell lymphoma RPMI 8866 cells. It is filed as functional, cell-based.
As for `CC(C)(C)OC(=O)[C@H](Cc1ccccc1)NCc1ccccc1F`, the IC50 was determined as 117 µM.
Still for that read-out and setting: the figure for `CC(C)(C)OC(=O)[C@H](Cc1ccccc1)NCc1cccc(O)c1` is 54 µM; for `CC(C)(C)OC(=O)[C@H](Cc1ccccc1)NCc1cccc(F)c1` it is 176 µM.
Turning to `CC(C)(C)OC(=O)[C@H](Cc1ccccc1)NCc1ccccc1O`, the IC50 was determined as 60 µM.
As to `O=C(OCc1ccccc1)[C@H](Cc1ccccc1)NCc1cc([N+](=O)[O-])ccc1O`, the midpoint of inhibition, the IC50, lay at 7 µM.
Still for that read-out and setting: then `CC(C)(C)OC(=O)[C@H](Cc1ccccc1)NCc1ccccc1`, with 100 µM; and `COc1cccc(CN[C@@H](Cc2ccccc2)C(=O)OC(C)(C)C)c1`, with 122 µM; and `CC(C)(C)OC(=O)[C@H](Cc1ccccc1)NCc1cc([N+](=O)[O-])ccc1O`, with 30 µM.
`CC(C)(C)OC(=O)[C@H](Cc1ccccc1)NCc1ccc(O)cc1` showed an IC50 of 85 µM.
Still for that read-out and setting: then `COc1ccccc1CN[C@@H](Cc1ccccc1)C(=O)OC(C)(C)C`, with 50 µM; and `COc1ccc(CN[C@@H](Cc2ccccc2)C(=O)OC(C)(C)C)cc1`, with 122 µM.
Take `CC(C)(C)COC(=O)[C@H](Cc1ccccc1)NCc1cc([N+](=O)[O-])ccc1O`: the midpoint of inhibition, the IC50, lay at 9 µM.
Take `C=C(C)CCOC(=O)[C@H](Cc1ccccc1)NCc1cc([N+](=O)[O-])ccc1O`: the IC50 stood at 82 µM.
`CC(C)CCNC(=O)[C@H](Cc1ccccc1)NCc1cc([N+](=O)[O-])ccc1O` returned an IC50 of 6 µM.
The same measure, in the same setting: the figure for `CC(C)CCOC(=O)[C@H](Cc1ccccc1)NCc1cc([N+](=O)[O-])ccc1O` is 7 µM.
On the same count and under the same terms, then `CC(C)(C)OC(=O)[C@H](Cc1ccccc1)NCc1ccc(F)cc1`, with 121 µM.

In the next assay the target is T1, Integrin alpha-4/beta-7. Briefly: Inhibition of alpha-4 beta7/MAdCAM mediated cell adhesion was evaluated using B-cell lymphoma RPMI 8866 cells; In active. It is filed as functional, cell-based.
`CC(C)(C)OC(=O)[C@H](Cc1ccccc1)NCc1ccc([N+](=O)[O-])c(O)c1`: the IC50 entry was “Not Active”.
The same measure, in the same setting: the entry for `CC(C)CCNC(=O)[C@@H](Cc1ccccc1)NCc1cc([N+](=O)[O-])ccc1O` is “Not Active”.

The term IC50 denotes the concentration that gives 50% inhibition.
